From ChEMBL document CHEMBL5465560, “Selectivity Literature for EUbOPEN Chemogenomic Library” (2024)

Tests used:
[1] = molecular target: Serine/threonine-protein kinase 38-like (Homo sapiens) (UniProt Q9Y2H1); details: at 10 µM
[2] = molecular target: T1, Ephrin type-A receptor 8 (Homo sapiens) (UniProt P29322); assay: Selectivity interaction (Ambit KINOMEscan and KiNATiv profiling in Jurkat cells) EUB0000090b EPHA8; type: cell-based; details: at 1 µM
T1 sequence (whole entry): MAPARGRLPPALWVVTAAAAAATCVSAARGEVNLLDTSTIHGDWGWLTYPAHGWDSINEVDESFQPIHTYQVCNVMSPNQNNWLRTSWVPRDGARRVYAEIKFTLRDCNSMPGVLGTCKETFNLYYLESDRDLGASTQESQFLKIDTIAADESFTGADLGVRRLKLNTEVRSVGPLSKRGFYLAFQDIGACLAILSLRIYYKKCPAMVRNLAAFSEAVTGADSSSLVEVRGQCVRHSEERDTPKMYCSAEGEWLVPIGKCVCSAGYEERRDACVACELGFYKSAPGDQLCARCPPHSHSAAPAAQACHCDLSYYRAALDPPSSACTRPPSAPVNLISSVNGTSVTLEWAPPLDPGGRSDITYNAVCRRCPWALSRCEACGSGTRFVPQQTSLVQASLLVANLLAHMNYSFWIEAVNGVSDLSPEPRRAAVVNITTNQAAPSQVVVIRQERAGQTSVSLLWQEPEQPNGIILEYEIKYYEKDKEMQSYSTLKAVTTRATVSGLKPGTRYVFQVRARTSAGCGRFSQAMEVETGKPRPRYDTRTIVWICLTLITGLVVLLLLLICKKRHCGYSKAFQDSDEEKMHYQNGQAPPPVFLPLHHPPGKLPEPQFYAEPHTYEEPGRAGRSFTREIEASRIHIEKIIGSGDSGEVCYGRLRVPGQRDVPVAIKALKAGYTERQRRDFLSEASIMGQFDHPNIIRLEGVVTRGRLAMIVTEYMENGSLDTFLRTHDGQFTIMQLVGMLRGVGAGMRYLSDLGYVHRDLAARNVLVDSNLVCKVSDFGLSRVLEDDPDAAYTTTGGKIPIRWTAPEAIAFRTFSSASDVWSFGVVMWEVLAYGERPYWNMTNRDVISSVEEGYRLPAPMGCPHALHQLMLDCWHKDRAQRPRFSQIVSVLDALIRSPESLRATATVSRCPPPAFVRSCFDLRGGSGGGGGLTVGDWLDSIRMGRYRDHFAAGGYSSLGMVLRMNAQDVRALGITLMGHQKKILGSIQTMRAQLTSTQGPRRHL

[3] = molecular target: Cyclin-dependent kinase 5 (Homo sapiens, UniProt Q00535); assay: Selectivity interaction (Ambit KINOMEscan and KiNATiv profiling in Jurkat cells) EUB0000090b CDK5; type: cell-based; details: at 1 µM
[4] = molecular target: T2, Sphingosine kinase 2 (Homo sapiens) (UniProt Q9NRA0); assay: Selectivity interaction (Kinase panel (Invitrogen)) EUB0000639a SPHK2; details: at 200 nM
T2 sequence (whole entry): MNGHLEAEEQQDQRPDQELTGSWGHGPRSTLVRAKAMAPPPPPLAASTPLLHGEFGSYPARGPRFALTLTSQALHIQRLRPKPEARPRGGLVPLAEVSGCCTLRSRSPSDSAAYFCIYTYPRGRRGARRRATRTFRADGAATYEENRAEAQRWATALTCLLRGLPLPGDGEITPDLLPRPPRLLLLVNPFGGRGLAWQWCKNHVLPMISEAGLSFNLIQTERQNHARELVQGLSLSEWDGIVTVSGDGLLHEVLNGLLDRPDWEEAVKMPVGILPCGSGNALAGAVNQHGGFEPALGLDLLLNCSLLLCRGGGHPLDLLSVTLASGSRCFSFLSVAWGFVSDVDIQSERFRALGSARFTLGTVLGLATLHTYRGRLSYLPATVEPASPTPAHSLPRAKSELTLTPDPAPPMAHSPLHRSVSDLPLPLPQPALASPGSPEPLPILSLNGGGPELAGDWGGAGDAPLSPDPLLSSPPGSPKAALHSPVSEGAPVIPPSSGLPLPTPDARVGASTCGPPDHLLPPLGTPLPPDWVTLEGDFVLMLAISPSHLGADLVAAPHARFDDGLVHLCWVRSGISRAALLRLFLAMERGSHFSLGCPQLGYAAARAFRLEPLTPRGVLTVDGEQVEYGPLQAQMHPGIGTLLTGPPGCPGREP

[5] = molecular target: Serine/threonine-protein kinase PLK3 (Homo sapiens, UniProt Q9H4B4); assay: Selectivity interaction (KinomeScan (DiscoverX)) EUB0000092b PLK3; details: at 10 µM
[6] = molecular target: T3, Discoidin domain-containing receptor 2 (Homo sapiens) (UniProt Q16832); assay: Selectivity interaction (KinomeScan (DiscoverX)) EUB0000607a DDR2; details: at 10 µM
T3 sequence (whole entry): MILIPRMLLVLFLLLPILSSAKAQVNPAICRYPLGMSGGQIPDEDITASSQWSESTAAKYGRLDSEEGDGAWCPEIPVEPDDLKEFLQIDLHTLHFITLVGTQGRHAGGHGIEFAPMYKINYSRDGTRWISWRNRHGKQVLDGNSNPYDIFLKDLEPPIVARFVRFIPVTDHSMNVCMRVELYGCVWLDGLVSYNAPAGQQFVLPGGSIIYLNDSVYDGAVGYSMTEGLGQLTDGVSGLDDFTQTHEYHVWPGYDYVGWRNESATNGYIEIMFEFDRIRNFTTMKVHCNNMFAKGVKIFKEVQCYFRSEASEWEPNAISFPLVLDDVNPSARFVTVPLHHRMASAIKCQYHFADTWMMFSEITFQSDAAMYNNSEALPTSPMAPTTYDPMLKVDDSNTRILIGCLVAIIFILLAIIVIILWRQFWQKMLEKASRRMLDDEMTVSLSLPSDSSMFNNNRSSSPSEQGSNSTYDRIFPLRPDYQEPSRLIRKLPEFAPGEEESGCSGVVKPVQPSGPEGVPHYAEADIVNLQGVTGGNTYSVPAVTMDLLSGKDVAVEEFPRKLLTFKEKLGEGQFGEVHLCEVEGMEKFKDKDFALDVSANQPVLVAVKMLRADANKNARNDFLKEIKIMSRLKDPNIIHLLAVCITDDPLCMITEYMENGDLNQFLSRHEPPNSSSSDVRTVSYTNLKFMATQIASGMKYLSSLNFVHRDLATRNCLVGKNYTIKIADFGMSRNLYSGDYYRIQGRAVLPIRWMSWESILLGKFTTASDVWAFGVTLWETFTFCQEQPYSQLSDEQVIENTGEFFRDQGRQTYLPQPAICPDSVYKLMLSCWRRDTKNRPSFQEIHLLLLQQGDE

Sequence of Serine/threonine-protein kinase PLK3 (Q9H4B4 whole entry, looked up, the tested form may be a part): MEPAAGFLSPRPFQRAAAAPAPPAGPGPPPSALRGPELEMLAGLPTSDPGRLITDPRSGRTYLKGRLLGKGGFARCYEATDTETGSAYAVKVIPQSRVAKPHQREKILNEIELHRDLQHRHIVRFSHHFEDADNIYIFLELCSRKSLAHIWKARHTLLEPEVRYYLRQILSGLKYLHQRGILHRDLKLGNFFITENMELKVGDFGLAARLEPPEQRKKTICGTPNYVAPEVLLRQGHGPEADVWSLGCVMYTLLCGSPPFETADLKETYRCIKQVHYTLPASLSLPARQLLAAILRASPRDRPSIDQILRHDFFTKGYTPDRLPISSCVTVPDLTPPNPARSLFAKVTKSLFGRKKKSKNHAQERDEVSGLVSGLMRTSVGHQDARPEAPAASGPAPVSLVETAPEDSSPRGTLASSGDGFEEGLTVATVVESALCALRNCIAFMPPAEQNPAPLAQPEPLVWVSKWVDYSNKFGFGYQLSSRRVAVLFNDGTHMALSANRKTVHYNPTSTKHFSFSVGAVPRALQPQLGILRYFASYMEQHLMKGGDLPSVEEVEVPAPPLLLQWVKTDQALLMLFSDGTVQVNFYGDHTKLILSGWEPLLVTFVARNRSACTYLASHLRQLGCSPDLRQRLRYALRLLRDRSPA
Sequence of Serine/threonine-protein kinase 38-like (Homo sapiens) (Q9Y2H1 2-464 limits assumed): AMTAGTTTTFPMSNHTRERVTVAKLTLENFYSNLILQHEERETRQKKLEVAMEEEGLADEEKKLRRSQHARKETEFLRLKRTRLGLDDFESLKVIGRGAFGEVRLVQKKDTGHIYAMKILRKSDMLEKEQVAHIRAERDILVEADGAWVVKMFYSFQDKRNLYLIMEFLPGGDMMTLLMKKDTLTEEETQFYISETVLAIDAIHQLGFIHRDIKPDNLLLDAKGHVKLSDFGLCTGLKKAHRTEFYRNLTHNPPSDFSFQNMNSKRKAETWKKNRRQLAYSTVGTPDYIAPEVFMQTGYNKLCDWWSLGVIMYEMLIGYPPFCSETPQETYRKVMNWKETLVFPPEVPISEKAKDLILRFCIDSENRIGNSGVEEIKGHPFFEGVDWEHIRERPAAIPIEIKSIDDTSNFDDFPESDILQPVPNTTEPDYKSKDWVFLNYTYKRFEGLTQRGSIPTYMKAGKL
Sequence of Cyclin-dependent kinase 5 (Q00535 whole entry, looked up): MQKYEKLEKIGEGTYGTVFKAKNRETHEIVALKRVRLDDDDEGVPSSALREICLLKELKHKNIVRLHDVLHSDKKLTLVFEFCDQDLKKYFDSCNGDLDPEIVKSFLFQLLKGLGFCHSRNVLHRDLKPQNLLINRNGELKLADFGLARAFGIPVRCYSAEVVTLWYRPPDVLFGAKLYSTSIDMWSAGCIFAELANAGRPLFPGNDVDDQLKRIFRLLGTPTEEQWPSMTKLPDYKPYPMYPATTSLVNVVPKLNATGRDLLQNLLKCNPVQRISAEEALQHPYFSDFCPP

Work on `Cc1cc([C@@H](C)Nc2ccccc2C(=O)O)c2nc(N3CCOCC3)cc(=O)n2c1` [AZD-6482] yielded a % of control [1] of 94%.
Work on `CN(C)C/C=C/C(=O)Nc1ccc(C(=O)N2CCCC(Nc3ncc(Cl)c(-c4c[nH]c5ccccc45)n3)C2)cc1` (stereo unspecified) yielded a % of control [2] of 89% and a % of control [3] of 89%.
`CC[C@@H]1[C@H](F)C(=O)N[C@@H]1COc1nccc2cc(C(N)=O)c(OC)cc12` [ZIMLOVISERTIB] gave a % of inhibition [4] of -0.837%.
In the case of `CCC(=O)N1CCN(c2ccc(-n3c(=O)ccc4cnc5ccc(-c6cnc7ccccc7c6)cc5c43)cc2C(F)(F)F)CC1`, the % of control [5] was 87%.
Compound `CNC(=O)Nc1ccc(-c2nc(N3CC4CCC(C3)O4)c3cnn(C4CCC5(CC4)OCCO5)c3n2)cc1` has a % of control [6] of 100%.
